Assay results published in patent US20240123013A1, “SUPPLEMENT FOR ARTHRITIS AND PSORIASIS” (priority 2021, published 2024).

Assay: Comparison of arthritis gel compositions formulated with different crystalline CBDs (Example 12)
Settings: gels differ only in the crystalline CBD used
Procedure: Two hydroalcoholic arthritis gel compositions are prepared according to Example 2, the only difference being that the crystalline CBD used in the formulation is either of type A (needle-like crystals; FIG. 1) or type B (bunch/cluster-like; FIG. 2).

SMILES: C=C(C)[C@@H]1CCC(C)=C[C@H]1c1c(O)cc(CCCCC)cc1O [type A CBD, cannabidiol]
- Activity of CBD in hydroalcoholic arthritis gel, crystal type A versus type B: significantly more active than type B CBD
- Activity of CBD in hydroalcoholic arthritis gel, crystal type A versus type B (listed as crystal structure A): significantly more potent
